From patent US6215002A, “Pyrrolopyrrolone derivatives as inhibitors of neutrophil elastase” (priority 1996, dated 2001)
pIC50: −log10 of the molar value. Counter-ions that a name gives are not always drawn.

The compounds below were run against T1, human neutrophil elastase (Homo sapiens, UniProt P08246) (assay: In vitro assay of human neutrophil elastase (HNE)). Conditions: 118 nM purified human neutrophil elastase, pH 8.6, 15 min incubation at 30° C., MeO-succinyl-alanyl-alanyl-prolyl-valyl-p-nitroanilide substrate; read-out: HNE IC50.
T1 sequence (P08246 30-267): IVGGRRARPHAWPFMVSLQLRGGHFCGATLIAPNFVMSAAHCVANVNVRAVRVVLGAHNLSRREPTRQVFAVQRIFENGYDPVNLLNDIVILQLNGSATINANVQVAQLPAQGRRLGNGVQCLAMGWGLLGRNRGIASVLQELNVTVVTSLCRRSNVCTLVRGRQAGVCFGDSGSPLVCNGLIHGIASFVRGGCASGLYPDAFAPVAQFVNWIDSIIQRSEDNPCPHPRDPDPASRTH
Type: biochemical
Experimental: In Vitro Assays of Human Neutrophil Elastase
118 nM purified human neutrophil elastase
Suitable concentrations of compound under test diluted with water from a 10 mM stock solution in dimethylsulphoxide. Values above are final concentrations after the addition of substrate solution (see below).
The mixture above is incubated for fifteen minutes at 30° C. at which time the remaining elastase activity is measured for 10 minutes in a BioTek 340i plate-reader, after the addition of 0.6 mM MeO-succinyl-alanyl-alanyl-prolyl-valyl-p-nitroanilide. The rate of increase in absorbance at 405 nm is proportional to elastase activity. Enzyme activity is plotted against concentration of inhibitor and an IC50 determined using curve fitting software.
1. The compounds were tested in the in vitro elastase test described earlier in the description.

pIC50 | SMILES
7.37 | CCC[C@H]1C(=O)N(S(C)(=O)=O)[C@H]2CCN(C(=O)CCCCCCCCCN(C)C)[C@H]12 (relative stereo) [Example 67, rel-(3R,3aR,6aS)-4-(10-Dimethylamino-decanoyl)-1-methanesulfonyl-3-propyl-hexahydro-pyrrolo[3,2-b]pyrrol-2-one DL-tartrate]
7.13 | CCC[C@H]1C(=O)N(S(C)(=O)=O)[C@H]2CCN(C(=O)CCCCCN3CCCC3)[C@H]12 (relative stereo) [Example 73, rel-(3R,3aR,6aS)-1-Methanesulfonyl-3-propyl-4-(6-pyrrolidin-1-yl-hexanoyl)-hexahydro-pyrrolo[3,2-b]pyrrol-2-one hydrochloride]
6.75 | CCC[C@H]1C(=O)N(S(C)(=O)=O)[C@H]2CCN(C(=O)CCCCCN(CC)CC)[C@H]12 (relative stereo) [Example 76, rel-(3R,3aR,6aS)-4-(6-Diethylamino-hexanoyl)-1-methanesulfonyl-3-propyl-hexahydro-pyrrolo[3,2-b]pyrrol-2-one DL-tartrate]
6.87 | CCC[C@H]1C(=O)N(S(C)(=O)=O)[C@H]2CCN(C(=O)CCCCCN(C)C)[C@H]12 (relative stereo) [Example 77, rel-(3R,3aR,6aS)-4-(6-Dimethylamino-hexanoyl)-1-methanesulfonyl-3-propyl-hexahydro-pyrrolo[3,2-b]pyrrol-2-one DL-tartrate]
7.06 | CCC[C@H]1C(=O)N(S(C)(=O)=O)[C@H]2CCN(C(=O)CCCCCN3CCC3)[C@H]12 (relative stereo) [Example 78, rel-(3R,3aR,6aS)-4-(6-Azetidin-1-yl-hexanoyl)-1-methanesulfonyl-3-propyl-hexahydro-pyrrolo[3,2-b]pyrrol-2-one DL-tartrate]
7.30 | CCC[C@H]1C(=O)N(S(C)(=O)=O)[C@H]2CCN(C(=O)CCCCCN3CCN(C)CC3)[C@H]12 (relative stereo) [Example 79, rel-(3R,3aR,6aS)-1-Methanesulfonyl-4-[6-(4-methyl-piperazin-1-yl)-hexanoyl]-3-propyl-hexahydro-pyrrolo[3,2-b]pyrrol-2-one dihydrochloride]
7.17 | CCC[C@H]1C(=O)N(S(C)(=O)=O)[C@H]2CCN(C(=O)CCCCCN(C)c3ccccc3)[C@H]12 (relative stereo) [Example 81, rel-(3R,3aR,6aS)-1-Methanesulfonyl-4-[6-(methyl-phenyl-amino)-hexanoyl]-3-propyl-hexahydro-pyrrolo[3,2-b]pyrrol-2-one hydrochloride]
6.79 | CCC[C@H]1C(=O)N(S(C)(=O)=O)[C@H]2CCN(C(=O)CCCN3CCN(C)CC3)[C@H]12 (relative stereo) [Example 82, rel-(3R,3aR,6aS)-1-Methanesulfonyl-4-[4-(4-methyl-piperazin-1-yl)-butyryl]-3-propyl-hexahydro-pyrrolo[3,2-b]pyrrol-2-one dihydrochloride]
6.70 | CCC[C@H]1C(=O)N(S(C)(=O)=O)[C@H]2CCN(C(=O)CCCN(CC)CC)[C@H]12 (relative stereo) [Example 83, rel-(3R,3aR,6aS)-4-(4-Diethylamino-butyryl)-1-methanesulfonyl-3-propyl-hexahydro-pyrrolo[3,2-b]pyrrol-2-one DL-tartrate]
6.87 | CCC[C@H]1C(=O)N(S(C)(=O)=O)[C@H]2CCN(C(=O)CCCN3CCC3)[C@H]12 (relative stereo) [Example 84, rel-(3R,3aR,6aS)-4-(4-Azetidin-1-yl-butyryl)-1-methanesulfonyl-3-propyl-hexahydro-pyrrolo[3,2-b]pyrrol-2-one DL-tartrate]
6.74 | CCC[C@H]1C(=O)N(S(C)(=O)=O)[C@H]2CCN(C(=O)CCCN(C)C)[C@H]12 (relative stereo) [Example 85, rel-(3R,3aR,6aS)-4-(4-Dimethylamino-butyryl)-1-methanesulfonyl-3-propyl-hexahydro-pyrrolo[3,2-b]pyrrol-2-one DL-tartrate]
7.12 | CCC[C@H]1C(=O)N(S(C)(=O)=O)[C@H]2CCN(C(=O)CCCN(C)c3ccccc3)[C@H]12 (relative stereo) [Example 88, rel-(3R,3aR,6aS)-1-Methanesulfonyl-4-[4-(methyl-phenyl-amino)-butyryl]-3-propyl-hexahydro-pyrrolo[3,2-b]pyrrol-2-one hydrochloride]
6.74 | CCC[C@H]1C(=O)N(S(C)(=O)=O)[C@H]2CCN(C(=O)CCCN3CCCC3)[C@H]12 (relative stereo) [Example 89, rel-(3R,3aR,6aS)-1-Methanesulfonyl-3-propyl-4-(4-pyrrolidin-1-yl-butyryl)-hexahydro-pyrrolo[3,2-b]pyrrol-2-one hydrochloride]
6.52 | CCC[C@H]1C(=O)N(S(C)(=O)=O)[C@H]2CCN(C(=O)CCN(C)C)[C@H]12 (relative stereo) [Example 90, rel-(3R,3aR,6aS)-4-(3-Dimethylamino-propionyl)-1-methanesulfonyl-3-propyl-hexahydro-pyrrolo[3,2-b]pyrrol-2-one hydrochloride]
7.19 | CCC[C@H]1C(=O)N(S(C)(=O)=O)[C@H]2CCN(C(=O)CCN(CC)CC)[C@H]12 (relative stereo) [Example 91, rel-(3R,3aR,6aS)-4-(3-Diethylamino-propionyl)-1-methanesulfonyl-3-propyl-hexahydro-pyrrolo-3,2-b]pyrrol-2-one hydrochloride]

The remaining lines, values behind:

SMILES | pIC50
CCC[C@H]1C(=O)N(S(C)(=O)=O)[C@H]2CCN(C(=O)CCCCCCCCCN3CCCCCC3)[C@H]12 (relative stereo) [Example 66, rel-(3R,3aR,6aS)-4-(10-Azepin-1-yl-decanoyl)-1-methanesulfonyl-3-propyl-hexahydro-pyrrolo[3,2-b]pyrrol-2-one hydrochloride] | 7.47
CCC[C@H]1C(=O)N(S(C)(=O)=O)[C@H]2CCN(C(=O)CCCCCCCCCN(C)c3ccccc3)[C@H]12 (relative stereo) [Example 68, rel-(3R,3aR,6aS)-1-Methanesulfonyl-4-[10-methyl-phenyl-amino)decanoyl]-3-propyl-hexahydro-pyrrolo[3,2-b]pyrrol-2-one hydrochloride] | 7.14
CCC[C@H]1C(=O)N(S(C)(=O)=O)[C@H]2CCN(C(=O)CCCCCCCCCN3CCN(C)CC3)[C@H]12 (relative stereo) [Example 69, rel-(3R,3aR,6aS)-1-Methanesulfonyl-4-[10-(4-methyl-piperazin-1-yl)-decanoyl]-3-propyl-hexahydro-pyrrolo[3,2-b]pyrrol-2-one dihydrochloride] | 7.10
CCC[C@H]1C(=O)N(S(C)(=O)=O)[C@H]2CCN(C(=O)CCCCCCCCCN3CCCCC3)[C@H]12 (relative stereo) [Example 70, rel-(3R,3aR,6aS)-1-Methanesulfonyl-4-(10-piperidin-1-yl-decanoyl)-3-propyl-hexahydro-pyrrolo[3,2-b]pyrrol-2-one DL-tartrate] | 7.39
CCC[C@H]1C(=O)N(S(C)(=O)=O)[C@H]2CCN(C(=O)CCCCCCCCCN3CCCC3)[C@H]12 (relative stereo) [Example 71, rel-(3R,3aR,6aS)-1-Methanesulfonyl-3-propyl-4-(10-pyrrolidin-1-yl-decanoyl)-hexahydro-pyrrolo[3,2-b]pyrrol-2-one hydrochloride] | 7.46
CCC[C@H]1C(=O)N(S(C)(=O)=O)[C@H]2CCN(C(=O)CCCCCCCCCN3CCC3)[C@H]12 (relative stereo) [Example 72, rel-(3R,3aR,6aS)-4-(10-Azetidin-1-yl-decanoyl)-1-methanesulfonyl-3-propyl-hexahydro-pyrrolo[3,2-b]pyrrol-2-one DL-tartrate] | 7.43
CCC[C@H]1C(=O)N(S(C)(=O)=O)[C@H]2CCN(C(=O)CCCCCN3CCCCC3)[C@H]12 (relative stereo) [Example 74, rel-(3R,3aR,6aS)-1-Methanesulfonyl-4-(6-piperidin-1-yl-hexanoyl)-3-propyl-hexahydro-pyrrolo[3,2-b]pyrrol-2-one hydrochloride] | 7.26
CCC[C@H]1C(=O)N(S(C)(=O)=O)[C@H]2CCN(C(=O)CCCCCN3CCCN(C)CC3)[C@H]12 (relative stereo) [Example 80, rel-(3R,3aR,6aS)-1-Methanesulfonyl-4-[6-(4-methyl-[1,4]diazepin-1-yl)-hexanoyl]-3-propyl-hexahydro-pyrrolo[3,2-b]pyrrol-2-one hydrochloride] | 7.21
CCC[C@H]1C(=O)N(S(C)(=O)=O)[C@H]2CCN(C(=O)CCCN3CCCCCC3)[C@H]12 (relative stereo) [Example 86, hydrochloride] | 6.99
CCC[C@H]1C(=O)N(S(C)(=O)=O)[C@H]2CCN(C(=O)CCCN3CCCCC3)[C@H]12 (relative stereo) [Example 87, rel-(3R,3aR,6aS)-1-Methanesulfonyl-4-(4-piperidin-1-yl-butyryl)-3-propyl-hexahydro-pyrrolo[3,2-b]pyrrol-2-one DL-tartrate] | 7.02

Same assay, conditions: HNE IC50, 118 nM purified human neutrophil elastase, pH 8.6, 15 min incubation at 30° C., MeO-succinyl-alanyl-alanyl-prolyl-valyl-p-nitroanilide substrate

SMILES | pIC50
CCC[C@H]1C(=O)N(S(C)(=O)=O)[C@H]2CCN(C(=O)CCCCCN3C4CCCC3CC4)[C@H]12 (relative stereo) [Example 75, rel-(3R,3aR,6aS)-4-(6-8-Aza-bicyclo[3.2. 1]oct-8-yl-hexanoyl)-1-methanesulfonyl-3-propyl-hexahydro-pyrrolo[3,2-b]pyrrol-2-one hydrochloride] | 7.48
